System: HEK293T cells carrying the ATF4 luciferase reporter
Assay: ATF4-Luc assay (in vitro model of VWMD)
Type: cell-based
Details: Homo sapiens, HEK-293T; HEK293T cells with ATF4 5'-UTR firefly luciferase reporter; 1 μg/mL tunicamycin; 7 hours; One Glo luminescence
Procedure: In order to test exemplary compounds of the invention in a cellular context, a stable VWMD cell line was first constructed. The ATF4 reporter was prepared by fusing the human full-length ATF4 5′-UTR (NCBI Accession No. BC022088.2) in front of the firefly luciferase (FLuc) coding sequence lacking the initiator methionine as described in Sidrauski et al (eLife 2013). The construct was used to produce recombinant retroviruses using standard methods and the resulting viral supernatant was used to transduce HEK293T cells, which were then subsequently selected with puromycin to generate a stable cell line.
HEK293T cells carrying the ATF4 luciferase reporter were plated on polylysine coated 384-well plates (Greiner Bio-one) at 30,000 cells per well. Cells were treated the next day with 1 μg/mL tunicamycin and 200 nM of a compound of Formula (I) for 7 hours. Luminescence was measured using One Glo (Promega) as specified by the manufacturer. Cells were maintained in DMEM with L-glutamine supplemented with 10% heat-inactivated FBS (Gibco) and Antibiotic-Antimycotic solution (Gibco).
Table 2 below summarizes the EC50 data obtained using the ATF4-Luc assay for exemplary compounds of the invention.

Structure (SMILES) | EC50
O=C(COc1ccc(Cl)c(F)c1)NC12CCC(c3nnc(Oc4ccc(Cl)c(F)c4)o3)(CC1)[C@@H](O)C2 [Compound 172, 2-(4-chloro-3-fluorophenoxy)-N-{(3S)-4-[5-(4-chloro-3-fluorophenoxy)-1,3,4-oxadiazol-2-yl]-3-hydroxybicyclo[2.2.2]octan-1-yl}acetamide] | < 50 nM
O=C(COc1ccc(Cl)c(F)c1)NC12CCC(c3nnc(Oc4ccc(Cl)c(F)c4)o3)(CC1)[C@H](O)C2 [Compound 171, 2-(4-chloro-3-fluorophenoxy)-N-{(3R)-4-[5-(4-chloro-3-fluorophenoxy)-1,3,4-oxadiazol-2-yl]-3-hydroxybicyclo[2.2.2]octan-1-yl}acetamide] | < 50 nM
O=C(COc1ccc(Cl)c(F)c1)NC12CCC(c3nnc(Oc4ccc(Cl)c(F)c4)o3)(CC1)C(O)C2 (stereo not drawn) [Compound 170, 2-(4-chloro-3-fluorophenoxy)-N-{4-[5-(4-chloro-3-fluorophenoxy)-1,3,4-oxadiazol-2-yl]-3-hydroxybicyclo[2.2.2]octan-1-yl}acetamide] | < 50 nM
